Measured values from PubChem BioAssay (NCI).
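Step 1: Grow cells in 96-well plates. Step 2: Expose to compound for 48 hours at 5 concentrations. Step 3: Interpolate endpoints linearly; if unreached, use highest concentration. Definition used: TGI = concentration required for complete inhibition of growth.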

Experiments:
Test in all cases: NCI tumour cell line growth inhibition, 48 h
[1] = test system: 786-0 renal
[2] = test system: A498 renal
[3] = test system: A549 NSCLC
[4] = test system: ACHN renal
[5] = test system: CAKI-1 renal
[6] = test system: CCRF-CEM leukemia
[7] = test system: COLO 205 colon
[8] = test system: DLD-1 colon
[9] = test system: DMS 114 small cell lung
[10] = test system: DMS 273 small cell lung
[11] = test system: EKVX NSCLC
[12] = test system: HCC-2998 colon
[13] = test system: HCT-116 colon
[14] = test system: HCT-15 colon
[15] = test system: HL-60(TB) leukemia
[16] = test system: HOP-18 NSCLC
[17] = test system: HOP-62 NSCLC
[18] = test system: HOP-92 NSCLC
[19] = test system: HT29 colon
[20] = test system: IGROV1 ovarian
[21] = test system: K-562 leukemia
[22] = test system: KM12 colon
[23] = test system: KM20L2 colon
[24] = test system: LOX IMVI melanoma
[25] = test system: LXFL 529 NSCLC
[26] = test system: M14 melanoma
[27] = test system: M19-MEL melanoma
[28] = test system: MALME-3M melanoma
[29] = test system: MOLT-4 leukemia
[30] = test system: NCI-H226 lung
[31] = test system: NCI-H23 lung
[32] = test system: NCI-H460 lung
[33] = test system: NCI-H522 lung
[34] = test system: OVCAR-3 ovarian
[35] = test system: OVCAR-4 ovarian
[36] = test system: OVCAR-5 ovarian
[37] = test system: OVCAR-8 ovarian
[38] = test system: RPMI-8226 leukemia
[39] = test system: RXF 393 renal
[40] = test system: SF-268 CNS
[41] = test system: SF-295 CNS
[42] = test system: SF-539 CNS
[43] = test system: SK-MEL-2 melanoma
[44] = test system: SK-MEL-28 melanoma
[45] = test system: SK-MEL-5 melanoma
[46] = test system: SK-OV-3 ovarian
[47] = test system: SN12C renal
[48] = test system: SNB-19 CNS
[49] = test system: SNB-75 CNS
[50] = test system: SNB-78 CNS
[51] = test system: SW-620 colon
[52] = test system: TK-10 renal
[53] = test system: U251 CNS
[54] = test system: UACC-257 melanoma
[55] = test system: UO-31 renal
[56] = test system: XF 498 CNS
[57] = test system: RXF-631 renal
[58] = test system: SR leukemia

CC12CCc3ccccc3C1=NNC(=O)C2 (stereo not drawn)
TGI [1]: > 100 µM | TGI [2]: > 100 µM | TGI [3]: > 100 µM | TGI [4]: > 100 µM | TGI [5]: > 100 µM | TGI [6]: > 100 µM | TGI [7]: > 100 µM | TGI [8]: > 100 µM | TGI [9]: > 100 µM | TGI [10]: > 100 µM | TGI [11]: > 100 µM | TGI [12]: > 100 µM | TGI [13]: > 100 µM | TGI [14]: > 100 µM | TGI [15]: > 100 µM | TGI [16]: > 100 µM | TGI [17]: > 100 µM | TGI [18]: > 100 µM | TGI [19]: > 100 µM | TGI [20]: > 100 µM | TGI [21]: > 100 µM | TGI [22]: > 100 µM | TGI [23]: > 100 µM | TGI [24]: > 100 µM | TGI [25]: > 100 µM | TGI [26]: > 100 µM | TGI [27]: > 100 µM | TGI [28]: > 100 µM | TGI [29]: > 100 µM | TGI [30]: > 100 µM | TGI [31]: > 100 µM | TGI [32]: > 100 µM | TGI [33]: > 100 µM | TGI [34]: > 100 µM | TGI [35]: > 100 µM | TGI [36]: > 100 µM | TGI [37]: > 100 µM | TGI [38]: > 100 µM | TGI [39]: > 100 µM | TGI [40]: > 100 µM | TGI [41]: > 100 µM | TGI [42]: > 100 µM | TGI [43]: > 100 µM | TGI [44]: > 100 µM | TGI [45]: > 100 µM | TGI [46]: > 100 µM | TGI [47]: > 100 µM | TGI [48]: > 100 µM | TGI [49]: > 100 µM | TGI [50]: > 100 µM | TGI [51]: > 100 µM | TGI [52]: > 100 µM | TGI [53]: > 100 µM | TGI [54]: > 100 µM | TGI [55]: > 100 µM | TGI [56]: > 100 µM

COc1ccc2c(c1)[n+]([O-])c(-c1ccccc1Cl)c(N)[n+]2[O-]
TGI [1]: > 100 µM | TGI [2]: > 100 µM | TGI [3]: > 100 µM | TGI [4]: > 100 µM | TGI [5]: > 100 µM | TGI [7]: 32.6 µM | TGI [8]: > 100 µM | TGI [9]: > 100 µM | TGI [10]: > 100 µM | TGI [11]: > 100 µM | TGI [13]: > 100 µM | TGI [14]: > 100 µM | TGI [15]: > 100 µM | TGI [16]: > 100 µM | TGI [17]: > 100 µM | TGI [18]: > 100 µM | TGI [19]: > 100 µM | TGI [20]: > 100 µM | TGI [21]: > 100 µM | TGI [22]: > 100 µM | TGI [23]: > 100 µM | TGI [25]: > 100 µM | TGI [26]: > 100 µM | TGI [27]: > 100 µM | TGI [28]: > 100 µM | TGI [29]: > 100 µM | TGI [30]: > 100 µM | TGI [31]: > 100 µM | TGI [32]: > 100 µM | TGI [33]: 31.3 µM | TGI [34]: > 100 µM | TGI [35]: > 100 µM | TGI [36]: > 100 µM | TGI [37]: > 100 µM | TGI [38]: > 100 µM | TGI [57]: > 100 µM | TGI [40]: > 100 µM | TGI [41]: > 100 µM | TGI [42]: > 100 µM | TGI [43]: > 100 µM | TGI [44]: > 100 µM | TGI [45]: > 100 µM | TGI [46]: > 100 µM | TGI [47]: > 100 µM | TGI [48]: > 100 µM | TGI [49]: > 100 µM | TGI [50]: > 100 µM | TGI [58]: > 100 µM | TGI [51]: > 100 µM | TGI [53]: > 100 µM | TGI [54]: > 100 µM | TGI [55]: > 100 µM
